Results taken from a melting point compilation (Tetko et al.; mined from patent text by program, amines drawn as free bases though some values may be those of a salt).

Point of comparison: `CS(=O)(=O)N1CCN([C@@H](CNS(=O)(=O)c2ccc(OCc3ccccc3)cc2)C(=O)NO)CC1`, melting point 165 °C. Against it:
- CC(C)(C)OC(=O)Nc1ccc(C#Cc2ccccc2F)cc1NC(=O)CC(=O)c1cccc(C#N)c1 — higher, 216 to 217 °C
- Cc1ncn(C)c1[N+](=O)[O-] — lower, 45 °C
- Cc1noc(-c2cccc(NC(=O)N[C@@H]3c4cc(C#N)ccc4OC(C)(C)[C@H]3O)c2)n1 — lower, 157 to 161 °C
- CN(C)C=NS(=O)(=O)c1cc(CCNC(=O)C(F)(F)F)ccc1-c1ccco1 — lower, 150 °C
- O=C1CCCN1CCCNCc1ccc(-c2cc3ncnc(Nc4ccc5[nH]ccc5c4)c3s2)cc1 — lower, 139 to 146 °C
- CCOC(=O)c1cnccc1NC(=O)Cc1c(F)cccc1Cl — lower, 114 to 116 °C
- CS(=O)(=O)Nc1ccc(-c2nc(C(F)(F)F)c[nH]2)cc1 — higher, 253 to 255 °C
- CCCCCCCCCCCCCCCCCC(=O)NCCOC(=O)C1=CC(C(C)(C)C)C(O)(C(C)(C)C)C=C1 (stereo not drawn) — lower, 56 to 58 °C
- COc1ccc(-c2cc(=S)n(Cc3ccc(F)cc3)nc2-c2ccc(OC)cc2)cc1 — lower, 137 to 138 °C
- COC(=O)C1=C(C)NC(C)=C(C(=O)OCCN2CCN(c3cccc(Cl)c3)CC2)C1c1cccc([N+](=O)[O-])c1 (stereo not drawn) — lower, 65 to 68 °C
- COC(=O)c1ccc(OCCCOc2c(C)c(C)c(C(=O)Oc3c(C)c(C)c(C(N)=O)c(OC)c3C)c(OC)c2C)cc1 — higher, 202 to 204 °C
- O=C(N1CCOCC1)C(Cl)(c1ccccc1)c1ccccc1 — lower, 113 °C
- O=C(O)CC(NC(=O)C1CCCN2C(=O)CCC(NC(=O)c3ccccc3)C(=O)N12)C(=O)COC(=O)c1c(Cl)cccc1Cl (stereo not drawn) — lower, 126 to 130 °C
- COCCN1CCN(c2ccc(C(=O)NC3(C(=O)NCC#N)CCCCC3)cc2)CC1 — higher, 166 to 168 °C
- O=[N+]([O-])c1cc(Br)cc(OCCF)c1 — lower, 59 to 61 °C
- CC(C)CCN(CC(O)C(Cc1ccccc1)NC(=O)C(CC(N)=O)NC(=O)c1ccc2ccccc2n1)C(=O)NC(C)(C)C (stereo not drawn) — lower, 93.5 to 95.6 °C
- N#CCCn1cccc1-c1ccc2cnc(Nc3ccc(N4CCOCC4)cc3)nn12 — lower, 85 to 89 °C
- Cc1ccc(CS(=O)c2nc3cc4c(cc3[nH]2)OC(F)(F)O4)nc1 (stereo not drawn) — higher, 206 to 208 °C
- O=c1oc(-c2cccc(-c3ccccc3)c2)cc(O)c1Sc1ccc2ccccc2c1 — higher, 183 to 185 °C
- O=C(Nc1noc2ccccc12)N1CCN(c2nc(-c3ccccc3)co2)CC1 — higher, 171 to 172 °C
- CCOC(=O)C=Cc1ccc(Cl)cc1NS(=O)(=O)c1ccc(C)cc1 — lower, 124 to 127 °C
- Cc1nc(N2CCN(Cc3ccc(F)cc3)C2=O)sc1C(=O)NCCN1CCCC1 — higher, 183 to 184 °C
- COC(=O)C(Cc1ccc(C#N)cc1)C(=O)c1ccc(C#N)cc1 (stereo not drawn) — lower, 154 to 157 °C
- CCCc1c(O)ccc2oc(Cc3ccc(O)cc3)c(C)c12 — lower, 138 to 142 °C
- CCOC(=O)C(C)Oc1ccc(Sc2nnc3cc(Cl)ccc3n2)cc1 (stereo not drawn) — lower, 86 to 88 °C
- CC(=O)n1nc(-c2ccccc2)cc1Sc1ccccc1 — lower, 83 to 84.5 °C
- O=C1O[C@H](C(O)O)CCN1Cc1ccccc1 — lower, 120 °C
- O=C(c1cc2c([nH]c3ccccc32)s1)N1CCOCC1 — lower, 92 to 95 °C
- NCC(=O)Nc1ccc([N+](=O)[O-])cc1C(=NO)c1ccccc1F — higher, 198 °C
- CCCCCCCCCC1C=CC(Oc2ccc(C(=O)O)o2)=C2N=C3CCCCC3=C21 (stereo not drawn) — lower, 130 to 132 °C
- COC(=O)C1=C(C)NC(C)=C(C(=O)OC)C1c1cccc(N)c1 — higher, 214 to 215 °C
- Cc1noc(C)c1C(=O)Nc1ccc(-n2nc(C3CC3)cc2C2CC2)c(F)c1 — higher, 166 to 168 °C
- O=C(NCc1ccc(Cl)cc1)c1cn(Cc2ccccc2)c2sc(CN3CCOCC3)cc2c1=O — higher, 225 to 226 °C
- CCOC(=O)C1(C(=O)OCC)CCNC(=O)C1CCO (stereo not drawn) — lower, 120 to 121 °C
- CC(C)(C)c1ccc(NC(=O)OCC2(COC(=O)Nc3ccc(C(C)(C)C)cc3)CSc3ccccc3C2=O)cc1 — lower, 78 to 85 °C
- O=C(Cc1cccnc1)[N+]1([O-])CCC(C2c3ccc(Cl)cc3CCc3cccnc32)CC1 (stereo not drawn) — lower, 117 to 118 °C
- CC(=O)c1nccc(-c2ccc(Oc3ccc(F)cc3)cc2)n1 — lower, 61 to 63 °C
- CCC(O)(c1ccc(O)cc1O)c1ccccc1C(F)(F)F (stereo not drawn) — lower, 143 to 144 °C
- CC1(C)OC(=O)N2CCNCC21 (stereo not drawn) — lower, 92 to 93 °C
- N#Cc1cnc2cc(-c3ccc(CCN4CCOCC4)s3)ccc2c1Nc1ccc(Cl)cc1Cl — higher, 168 to 169 °C
- O=CN1CCCN(C2=Nc3cc(Cl)ccc3Nc3ccccc32)CC1 — lower, 152 to 155 °C
- CCCc1nc(C(=O)OCC)c(C(=O)OCC)[nH]1 — lower, 81 to 83 °C
- OCCN1c2ccccc2Oc2ccccc21 — lower, 113 to 115 °C
- Cc1c(C)c2c(c(C)c1NC(=O)c1ccccc1)C(c1ccc(C(C)C)cc1)C(C)(C)O2 (stereo not drawn) — higher, 218 to 220 °C
- Cc1ccc(C(=O)CCCl)cc1 — lower, 77.5 to 78.5 °C
- O=C(CCCCCCC(=O)Oc1cc(O)cc(O)c1)Oc1cc(O)cc(O)c1 — higher, 185 to 188 °C
- O=C(O)c1ccccc1C(=O)C=Cc1cc(O)c(O)c([N+](=O)[O-])c1 — higher, 178 to 180 °C
- CCN(CCc1coc2c(OC)cccc12)C1COc2c(F)ccc(C(N)=O)c2C1 (stereo not drawn) — lower, 124 to 132 °C
- CCOC(=O)c1c(Nc2c(C)cccc2C)n[nH]c1C — lower, 131 to 137 °C
- CCc1nc(N)nc2c1nc(NC)n2C1CC(N=[N+]=[N-])C(CO)O1 (stereo not drawn) — lower, 38 to 43 °C
- CCOC(=O)c1c(C#N)c2c(c3[nH]c4ccccc4c13)CCC2 — higher, 229 to 231 °C
- CCCCOc1ccc(-c2ccc3c(c2)C=C(C(=O)Nc2ccc(C(O)c4ccccn4)cc2)CCS3(=O)=O)cc1 (stereo not drawn) — lower, 142 to 145 °C
- CCOC(=O)Cc1nnc(-c2ccc(OC)cc2)n1-c1ccccc1 — lower, 130 to 131 °C
- N#Cc1cnn(-c2ccccn2)c1N — higher, 197 to 200 °C
- O=C1CCCC2=C1C(c1cc(Br)cs1)C1=C(CCS1)N2 (stereo not drawn) — higher, > 250 °C
- CCn1ccc(C2(c3cccc(-c4cncnc4)c3)N=C(N)N(C)C2=O)c1 (stereo not drawn) — lower, 100 to 102 °C
- CCc1cn(C2OC(CN)C(O)C2F)c(=O)[nH]c1=O (stereo not drawn) — higher, 194 to 214 °C
- O=C1CCC(N2C(=O)c3cccc(NC(=O)c4cccc(C(F)(F)F)c4)c3C2=O)C(=O)N1 (stereo not drawn) — higher, 257 to 259 °C
- C=Cc1nc(-c2cn(C)c3ccccc23)no1 — lower, 54 to 55 °C
- O=C(O)c1sc(-c2cccnc2)nc1C(F)(F)F — higher, 209 °C
- CC(C)C(=O)N(O)C(C)c1cc(C(C)(C)C)c(O)c(C(C)(C)C)c1 (stereo not drawn) — lower, 147 to 148 °C
- O=C(NC(Cc1ccc(OCc2ccccc2)cc1)C(=O)O)c1cn2cc(-c3ccc(Cl)cc3Cl)ccc2n1 (stereo not drawn) — higher, 237 to 239 °C
- COc1ccc(-c2[nH]nc3c2C(=O)c2c(NC(=O)Nc4ccncc4)cccc2-3)cc1 — higher, > 300 °C
- Cc1cc(-c2ccc(Cl)cc2)nnc1Cl — higher, 230 to 233 °C
- N#Cc1nn(-c2c(Cl)cc(C(F)(F)F)cc2Cl)c(Br)c1O — lower, 145 to 151 °C
- C=C(C=O)c1ccc(Cl)cc1[N+](=O)[O-] — lower, 87 to 88 °C
- Cn1nc(-c2ccc(Cl)c(NS(C)(=O)=O)c2)c2ccccc2c1=O — higher, 234 to 236 °C
- CS(=O)(=O)c1ccc(-c2cnn(-c3ccc(F)c(F)c3)c(=O)c2OCCC2CCCC2)cc1 — lower, 100 to 101 °C
- COc1ccc(NC(=S)NCC(OC)OC)cc1 — higher, 215 to 217 °C
- CCOC(=O)c1ccc(Sc2cc3c(cc2C(C)C)C(C)(C)CCC3(C)C)cc1 — lower, 99 to 100 °C
- Cc1ccc(N(C)C)cc1C=O — lower, 64 to 65 °C
- CC(C)n1cc(C(=O)Nc2nccs2)c2ccc(S(C)(=O)=O)cc21 — higher, 247 to 249 °C
- O=C(Nc1c[nH]nc1C(=O)NCC(F)(F)F)c1ccccc1 — higher, 203 to 206 °C
- Nc1ccc(CO)cc1N — lower, 74 to 75 °C
- COC(=O)c1cc2[nH]nc(N)c2s1 — higher, 218 to 220 °C
- O=C(O)CCc1cc2cc(Cl)ccc2n1S(=O)(=O)c1ccc(-c2ccccc2)cc1 — lower, 160 to 162 °C
- COc1cc(C)c(-c2c(C)cncc2C)c(C)c1 — lower, 87 to 88 °C
- CCc1nc(=O)c2cc3ccccc3nc2[nH]1 — higher, 240 to 245 °C
- N#Cc1cnccc1CCCOc1cccnc1Oc1cccc(Cl)c1 — lower, 146 to 150 °C
- C=CCOC1CC2C3CCC4=CC(=O)CCC4(C)C3(F)C(O)CC2(C)C1(O)C(=O)CCl (stereo not drawn) — higher, 224 to 225 °C
- CN(C)C=Nc1c(Cl)cc(N=Cc2cc(Cl)cc(Cl)c2)cc1Cl — higher, 194 to 195 °C
- O=C1CC(NC(=O)C2CCCN3C(=O)CCC(NC(=O)c4ccccc4)C(=O)N23)C(OCCc2ccccc2)O1 (stereo not drawn) — lower, 101 °C
- CCOC(=O)C(=NOC)c1nc(N)cc(Sc2ccccc2)n1 — lower, 154 to 156 °C
- COc1ccc(C(=O)Oc2ccc(C(=O)O)c(O)c2)cc1C12CC3CC(CC(C3)C1)C2 — higher, 243 to 244 °C
- CN(c1ccc(Cl)c2cc(C(N)=O)[nH]c12)S(=O)(=O)c1cccs1 — higher, 252 to 254 °C
- Cc1cc(O)c(C2C=CN(C)CC2)c(O)c1 (stereo not drawn) — higher, 241 to 243 °C
- CCOC(=O)CCc1cn(Cc2ccc(OCc3csc(-c4ccccn4)n3)cc2)cc1-c1ccccc1 — lower, 81 to 82 °C
- CCCCCNC(=N)NC(N)=S — lower, 98 to 100 °C
- CCc1cc(CC(=O)O)ccc1OCc1ccc2ccccc2n1 — lower, 144 °C
- O=CNCC1CCc2ccccc2N(C=O)C1 (stereo not drawn) — lower, 128 °C
- N#Cc1ccsc1-c1[nH]c(=O)c(-c2ccccc2)cc1C(=O)O — higher, 255 to 257 °C
- COc1cc(Oc2ccc(S(C)(=O)=O)nc2)cc2cc(C3=NCC(CC(=O)N(C)C)S3)[nH]c12 (stereo not drawn) — higher, 206 to 207 °C
- CCOC(=O)C1=C(C)NC(CSCOC(C)=O)=C(C(=O)OCC)C1c1cccc([N+](=O)[O-])c1 (stereo not drawn) — lower, 118 to 121 °C
- O=C(Cc1c(-c2ccccc2)c2cc(O)c(Cl)cc2oc1=O)Nc1ccc(Cl)cc1C(F)(F)F — higher, 246 to 247 °C
- Nc1nonc1-c1nc2ccccc2n1COc1ccccc1 — higher, 171 to 173 °C
- COc1ccc(-c2nc(C)cc(Cl)n2)cc1 — lower, 80 to 81 °C
- COc1cccc(CC(=O)O)c1OCCn1cc(C(=O)NCc2ccc(Cl)cc2Cl)c(OC(C)C)n1 — lower, 154 to 155 °C
